Values of other authors, collected in patent publication US10213389B2 (priority 2005, dated 2019).

In the case of “1,4:3,6-dianhydro-D-glucitol dinitrate [Isosorbide dinitrate]”, the “solubility in acetone, chloroform, alcohol and ether” value (acetone, chloroform, alcohol, ether) is given as “freely soluble” and the solubility in water (water, described as sparingly soluble) is given as 1.0 g/900 ml.
